Assay results from ChEMBL document CHEMBL3885861, “Open TG-GATES”.

Species on record: Rattus norvegicus
Assay: Open TG-GATES - Regimen: Single
Assay type: toxicity, organism-based, Sprague-Dawley
Design: regimen Single, gender Male, age 6 weeks
Conditions: in vivo, po, 30 mg/kg, route gavage, dose level Low; for APTT / Bas / Eos / Fbg / Hb / Ht / Lym / MCHC / MCV / Mono / Neu / PT / Plat / RBC / Ret / WBC: tissue Blood; for KIDNEY_L / KIDNEY_R / KIDNEY_TOTAL: tissue Kidney; for LIVER: tissue Liver; for ALP / ALT / AST / BUN / CRE / Ca / Cl / DBIL / GLC / IP / K / LDH / Na / PL / RALB / TBIL / TC / TG / TP / gamma-GTP: tissue Plasma

CS(=O)(=O)Nc1ccc([N+](=O)[O-])cc1Oc1ccccc1 [NIMESULIDE]
TERMINAL_BW (3 h): 200.4 g
APTT (3 h): 16.6 s
Bas (3 h): 0%
Eos (3 h): 1%
Fbg (3 h): 231 mg/dL
Hb (3 h): 13.1 g/dL
Ht (3 h): 39.1%
Lym (3 h): 80.8%
MCHC (3 h): 33.6%
MCV (3 h): 63.4 fL
Mono (3 h): 5%
Neu (3 h): 13.4%
PT (3 h): 12.5 s
Plat (3 h): 127.7 x10_4/uL
RBC (3 h): 616.4 x10_4/ul
Ret (3 h): 11.7%
WBC (3 h): 116.6 x10_2/uL
KIDNEY_L (3 h): 0.9 g
KIDNEY_R (3 h): 0.9 g
KIDNEY_TOTAL (3 h): 1.8 g
LIVER (3 h): 9 g
ALP (3 h): 803 IU/L
ALT (3 h): 39.6 IU/L
AST (3 h): 69.8 IU/L
BUN (3 h): 16.6 mg/dL
CRE (3 h): 0.6 mg/dL
Ca (3 h): 10.9 mg/dL
Cl (3 h): 107.6 meq/L
DBIL (3 h): 0.064 mg/dL
GLC (3 h): 208.4 mg/dL
IP (3 h): 9.2 mg/dL
K (3 h): 5 meq/L
LDH (3 h): 106 IU/L
Na (3 h): 141.2 meq/L
PL (3 h): 134.4 mg/dL
RALB (3 h): 3.7 g/dL
TBIL (3 h): 0.3 mg/dL
TC (3 h): 78.2 mg/dL
TG (3 h): 47.8 mg/dL
TP (3 h): 5.2 g/dL
gamma-GTP (3 h): 1.6 IU/L
TERMINAL_BW (6 h): 196.1 g
APTT (6 h): 17.4 s
Bas (6 h): 0%
Eos (6 h): 1%
Fbg (6 h): 201.6 mg/dL
Hb (6 h): 13.7 g/dL
Ht (6 h): 40.5%
Lym (6 h): 74.6%
MCHC (6 h): 33.8%
MCV (6 h): 65.6 fL
Mono (6 h): 9.2%
Neu (6 h): 15%
PT (6 h): 12.6 s
Plat (6 h): 111.4 x10_4/uL
RBC (6 h): 618 x10_4/ul
Ret (6 h): 10.6%
WBC (6 h): 84.5 x10_2/uL
KIDNEY_L (6 h): 0.9 g
KIDNEY_R (6 h): 0.9 g
KIDNEY_TOTAL (6 h): 1.8 g
LIVER (6 h): 8.3 g
ALP (6 h): 790 IU/L
ALT (6 h): 33 IU/L
AST (6 h): 62.2 IU/L
BUN (6 h): 13.8 mg/dL
CRE (6 h): 0.6 mg/dL
Ca (6 h): 10.7 mg/dL
Cl (6 h): 106.6 meq/L
DBIL (6 h): 0.054 mg/dL
GLC (6 h): 200 mg/dL
IP (6 h): 10.2 mg/dL
K (6 h): 5 meq/L
LDH (6 h): 86.8 IU/L
Na (6 h): 139.8 meq/L
PL (6 h): 119.6 mg/dL
RALB (6 h): 3.7 g/dL
TBIL (6 h): 0.4 mg/dL
TC (6 h): 68 mg/dL
TG (6 h): 56.6 mg/dL
TP (6 h): 5.2 g/dL
gamma-GTP (6 h): 1.2 IU/L
TERMINAL_BW (9 h): 200.7 g
APTT (9 h): 16.7 s
Bas (9 h): 0%
Eos (9 h): 0.6%
Fbg (9 h): 207.8 mg/dL
Hb (9 h): 13.2 g/dL
Ht (9 h): 39.5%
Lym (9 h): 81.4%
MCHC (9 h): 33.5%
MCV (9 h): 66.3 fL
Mono (9 h): 8.2%
Neu (9 h): 10%
PT (9 h): 12.3 s
Plat (9 h): 111.8 x10_4/uL
RBC (9 h): 596.2 x10_4/ul
Ret (9 h): 11%
WBC (9 h): 78.5 x10_2/uL
KIDNEY_L (9 h): 1 g
KIDNEY_R (9 h): 1 g
KIDNEY_TOTAL (9 h): 1.9 g
LIVER (9 h): 8.4 g
ALP (9 h): 888.4 IU/L
ALT (9 h): 30.8 IU/L
AST (9 h): 61 IU/L
BUN (9 h): 15 mg/dL
CRE (9 h): 0.5 mg/dL
Ca (9 h): 10.6 mg/dL
Cl (9 h): 108 meq/L
DBIL (9 h): 0.014 mg/dL
GLC (9 h): 201 mg/dL
IP (9 h): 10.2 mg/dL
K (9 h): 4.9 meq/L
LDH (9 h): 99 IU/L
Na (9 h): 139.4 meq/L
PL (9 h): 135.8 mg/dL
RALB (9 h): 3.9 g/dL
TBIL (9 h): 0.4 mg/dL
TC (9 h): 78.2 mg/dL
TG (9 h): 41 mg/dL
TP (9 h): 5.3 g/dL
gamma-GTP (9 h): 1.4 IU/L
TERMINAL_BW (24 h): 212.5 g
APTT (24 h): 17.2 s
Bas (24 h): 0%
Eos (24 h): 1.2%
Fbg (24 h): 199.2 mg/dL
Hb (24 h): 13.6 g/dL
Ht (24 h): 40.7%
Lym (24 h): 71.2%
MCHC (24 h): 33.4%
MCV (24 h): 63.8 fL
Mono (24 h): 8.2%
Neu (24 h): 19.4%
PT (24 h): 11.7 s
Plat (24 h): 109.8 x10_4/uL
RBC (24 h): 638.4 x10_4/ul
Ret (24 h): 10.3%
WBC (24 h): 124.8 x10_2/uL
KIDNEY_L (24 h): 0.9 g
KIDNEY_R (24 h): 1 g
KIDNEY_TOTAL (24 h): 1.9 g
LIVER (24 h): 10.6 g
ALP (24 h): 968.4 IU/L
ALT (24 h): 44 IU/L
AST (24 h): 68.8 IU/L
BUN (24 h): 19.2 mg/dL
CRE (24 h): 0.6 mg/dL
Ca (24 h): 10.8 mg/dL
Cl (24 h): 106 meq/L
DBIL (24 h): 0.012 mg/dL
GLC (24 h): 190.6 mg/dL
IP (24 h): 7.6 mg/dL
K (24 h): 4.9 meq/L
LDH (24 h): 99.2 IU/L
Na (24 h): 140.2 meq/L
PL (24 h): 151.6 mg/dL
RALB (24 h): 4 g/dL
TBIL (24 h): 0.3 mg/dL
TC (24 h): 81 mg/dL
TG (24 h): 90 mg/dL
TP (24 h): 5.5 g/dL
gamma-GTP (24 h): 2 IU/L
